From EP0268396B1, “4-(benzoyl)thiophene(or furan)-sulfonamide and derivatives thereof for the topical treatment of elevated intraocular pressures” (Merck & Co., Inc., priority 1986, dated 1988)
Where a name gives a salt, the structure may show the parent alone.

system: a-chymotrypsinized rabbit eye; test: Effect of topically administered drug on the α-chymotrypsin-induced elevation of IOP in the rabbit; type: in vivo; conditions: dose 0.5 %, single 50 µl drop applied topically in hydroxyethylcellulose (HEC) vehicle; maximum, statistically significant drop in IOP during the 5 hour duration of the assay

SMILES | MAX. IOP DROP (mm Hg)
CC(C)CNCc1cccc(C(=O)c2csc(S(N)(=O)=O)c2)c1 [Example 3-i-BuNHCH2-, 4-[3-(lsobutylaminomethyl)benzoyl]thiophene-2-sulfonamid] | -7.3 mm Hg
CC(C)CN(C)Cc1cccc(C(=O)c2csc(S(N)(=O)=O)c2)c1 [3-i-BuN(CH3)CH2-, 4-[3-(N-lsobutyl-N-methyl)aminomethyl]benzoylthiophene-2 sulfonamide] | -4.0 mm Hg
NS(=O)(=O)c1cc(C(=O)c2cccc(CNCc3ccccn3)c2)cs1 [3-( [drawing] CH2NHCH2-), 4-[3-(2-Pyridylmethylaminomethyl)]benzoylthiophene-2-sulfonamide dihydrochloride] | -4.0 mm Hg
CCCCNCc1ccc(C(=O)c2csc(S(N)(=O)=O)c2)cc1 [Example 4-n-BuNHCH2-] | -3.0 mm Hg
